Patent publication US20210069145A1, “COMPOSITIONS AND METHODS FOR REDUCING A FATTY ACID DESATURATION INDEX IN A SUBJECT IN NEED THEREOF” (Amarin Pharmaceuticals Ireland Limited, priority 2013, published 2021)

Tests used:
[1] = system: fatty acid desaturation index (FADI), RBCs; assay: Fatty acid desaturation index (FADI) ratios in red blood cells, 12-week placebo-controlled study; assay type: in vivo, human; details: 4 g/day, 12 weeks, placebo-adjusted, from baseline
Protocol: (§1) A multi-center, placebo-controlled, randomized, double-blind, 12-week study was performed to evaluate the efficacy and safety of >96% E-EPA in patients with fasting triglyceride levels ≥200 mg/dl and <500 mg/dl despite statin therapy (the mean of two qualifying entry values needed to be ≥185 mg/dl and at least one of the values needed to be ≥200 mg/dl). The primary objective of the study was to determine the efficacy of >96% E-EPA 2 g daily and 4 g daily, compared to placebo, in lowering fasting TG levels in patients with high risk for cardiovascular disease and with fasting TG levels ≥200 mg/dl and <500 mg/dl, despite treatment to LDL-C goal on statin therapy.
(§2) The population for this study was men and women >18 years of age with a body mass index ≤45 kg/m^2 with fasting TG levels greater than or equal to 200 mg/dl and less than 500 mg/dl and on a stable does of statin therapy (with or without ezetimibe). The statin was atorvostatin, rosuvastatin or simvastatin. The dose of statin must have been stable for ≥4 weeks prior to the LDL-C/TG baseline qualifying measurement for randomization. The statin dose was optimized such that the patients are at their LDL-C goal at the LDL-C/TG baseline qualifying measurements. The same statin at the same dose was continued until the study ended. […]
(§3) The primary efficacy variable for the double-blind treatment period was percent change in TG from baseline to Week 12 endpoint. The secondary efficacy variables for the double-blind treatment period included the following: • Percent changes in total cholesterol (TC), high-density lipoprotein cholesterol (HDL-C), LDL-C, calculated non-HDL-C, and very low-density lipoprotein cholesterol (VLDL-C) from baseline to Week 12 endpoint; • Percent change in very low-density lipoprotein TG from baseline to Week 12; • Percent changes in apolipoprotein A-I (apo A-I), apolipoprotein B (apo B), and apo A-I/apo B ratio from baseline to Week 12; • Percent changes in lipoprotein(a) from baseline to Week 12; • Percent changes in LDL particle number and size, measured by nuclear magnetic resonance, from baseline to Week 12; • Percent change in remnant-like particle cholesterol from baseline to Week 12; • Percent change in oxidized LDL from baseline to Week 12; • Changes in FPG and HbA1c from baseline to Week 12; • Change in insulin resistance, as assessed by the homeostasis model index insulin resistance, from baseline to Week 12; • Percent change in lipoprotein associated phospholipase A2 (Lp-PLA2) from baseline to Week 12; • Change in intracellular adhesion molecule-1 from baseline to Week 12; • Change in interleukin-2 from baseline to Week 12; • Change in plasminogen activator inhibitor-1 from baseline to Week 12. […]

[2] = system: fatty acid desaturation index (FADI), plasma; assay: Fatty acid desaturation index (FADI) ratios in plasma, 12-week placebo-controlled study; assay type: in vivo, human; details: 4 g/day, 12 weeks, placebo-adjusted, from baseline
Protocol: as §1, §2, §3

[3] = listed as Ethyl Eicosapentaenoate

Compound: CC/C=C\C/C=C\C/C=C\C/C=C\C/C=C\CCCC(=O)OCC [ethyl eicosapentaenoate, all-cis eicosa-5,8,11,14,17-pentaenoic acid ethyl ester]
- FADI-16 (Palmitoleic acid/Palmitic acid, C16:1/C16:0) % Change, RBCs [1]: significantly reduced
- FADI-18 (Oleic acid/Stearic Acid, C18:1/C18:0) % Change, RBCs [1]: significantly reduced
- FADI-16 (Palmitoleic acid/Palmitic acid, C16:1/C16:0) % Change, RBCs [1, 3]: −15.7%
- FADI-18 (Oleic acid/Stearic Acid, C18:1/C18:0) % Change, RBCs [1, 3]: −3.1%
- FADI-16 (Palmitoleic acid/Palmitic acid, C16:1/C16:0) % Change, Plasma [2]: significantly reduced
- FADI-18 (Oleic acid/Stearic Acid, C18:1/C18:0) % Change, Plasma [2]: significantly reduced
- FADI-16 (Palmitoleic acid/Palmitic acid, C16:1/C16:0) % Change, Plasma [2, 3]: −6.8%
- FADI-18 (Oleic acid/Stearic Acid, C18:1/C18:0) % Change, Plasma [2, 3]: −9.8%
